According to patent US6884589B2, “Model for myeloid cell growth, differentiation and disease” (Regents of the University of California, priority 2000, dated 2005):

Key:
Type in all cases: cell-based, murine
Settings in all cases: 10 μM atRA for 4 days
parental ECoM-G cells = experiment: atRA treatment of parental ECoM-G cells
[1] = tested on: PML/RARα ECoM-G derivatives; experiment: atRA treatment of ECoM-G clones arrested in differentiation by PML/RARα
Protocol: (§1) Retroviral infection of ECoM-G cells with heterologous oncoproteins. Helper-free retrovirus was generated for wild-type E2a-Pbx1, Hoxa7, Hoxa9, Nup98/HoxA9, Hoxb8, AML1/ETO, PML/RARα and PLZF/RARα constructs cloned into the multiple cloning site of the MSCVneo and MSCVpac retroviral vectors. ECoM-G cells (250,000) from 3 different clones were transduced by spinoculation (as described above) and selected 5 days in G418 (1 mg/ml) or puromycin (1 μg/ml). The cells were washed and plated in media without estrogen. Only those cells that were capable of continued and indefinite proliferation in the absence of estrogen were expanded to generate RNA for Northern analysis.
Analysis of differentiation arrest induced by heterologous oncoproteins in E2a-Pbx1-ER expressing cells. The ECoM cells provide a system in which to dissect the mechanisms of action of oncogenes. Heterologous oncoproteins were introduced into ECoM-G clones by retroviral infection. Expression was verified by immunoblot assay and cells were assayed for the ability to re-establish differentiation arrest following estrogen withdrawal. AML1/ETO, PML/RARα, Hoxa9, Hoxb8 and wild type E2a-Pbx1 prevented granulocytic differentiation of specific clones permitting their continued and indefinite proliferation in the presence of GM-CSF. […]

[2] = tested on: PLZF/RARα ECoM-G derivatives; experiment: atRA treatment of ECoM-G clones arrested in differentiation by PLZF/RARα
Protocol: as §1
Analysis of differentiation arrest induced by heterologous oncoproteins in E2a-Pbx1-ER expressing cells. The ECoM cells provide a system in which to dissect the mechanisms of action of oncogenes. Heterologous oncoproteins were introduced into ECoM-G clones by retroviral infection.

CC1=C(/C=C/C(C)=C/C=C/C(C)=C/C(=O)O)C(C)(C)CCC1 [atRA, all-trans-RA]
response to atRA (parental ECoM-G cells): completely unresponsive | response to atRA (proliferation, differentiation) [1]: stopped proliferating and underwent quantitative granulocytic differentiation | response to atRA (proliferation, differentiation) [2]: stopped proliferating and underwent quantitative granulocytic differentiation
